Values quoted from earlier work, collected in patent US10245278B2 (priority 2013, dated 2019).
Like-named read-outs stand apart in the source and are kept apart here.

How the values were obtained:
[1] = even at doses of 9 or 10 grams twice per day
[2] = slightly hypertensive persons; oral 12 grams per day in three administrations for 4 weeks
[3] = menopausal women; oral 14 grams per day for 6 months
[4] = angina pectoris or congestive heart failure; oral, at least 6 grams per day for 6 weeks
[5] = intermittent claudication; oral 8 grams twice per day for 3 weeks
[6] = heart transplant patients; 6 grams per day for several weeks
[7] = male subjects; 8 grams in a single administration one or two hours before relations

| Molecule | side effects [1] | arterial pressure [2] | muscular force [3] | ability to withstand physical effort [4] | walking range [5] | ability to withstand physical effort [6] | moderate sexual dysfunction [7] |
| --- | --- | --- | --- | --- | --- | --- | --- |
| N=C(N)NCCC[C@H](N)C(=O)O [arginine, L-arginine] | very few side effects | reduced the arterial pressure significantly | resulted in increasing muscular force | improves the ability to withstand physical effort | enabled their walking range to be increased |  |  |
| L-arginine aspartate |  |  |  |  |  | same result | significantly improved their disorder |
